We go through two substances from publication PMC9411606, “Control cell migration by engineering integrin ligand assembly” (Nature Communications, 2022).

A short description of the data set: Circular dichroism (CD) spectroscopy of peptide assemblies. Format: physicochemical. The conditions noted are these: 100 µM, aqueous, 0.5 mm path. As to the method: CD spectra of the peptide assemblies in aqueous solutions were recorded under the nitrogen atmosphere using a spectrophotometer JASCO J-820 (Jasco, Japan). A quartz cuvette with 0.5 mm path length was used as a sample container. Continuous scanning mode is applied. And each sample is scanned three times to obtain an averaged spectrum.
(CD spectra are sensitive to the conformation of chiral molecules.)

With “FIKLLI [candidate assembling ligand, F coupled to N-terminus of IKLLI]”, the “secondary structure of self-assembly” value was “random coil structure”. Then “FFIKLLI [candidate assembling ligand, FF coupled to N-terminus of IKLLI]”, with “β-sheet structure”.
